We go through one compound from article PMC3226499, “Environmental Impact on Vascular Development Predicted by High-Throughput Screening” (Environmental Health Perspectives, 2011).

Assay [1] deals with human umbilical vein endothelial cell. On the set-up: method as in Noguchi et al. 2005. Conditions: ref Noguchi et al. 2005; cited from earlier work.
In another assay the test system is uPAR. In words: BioMAP protein readout: uPAR up- and down-regulation. The class given is cell-based, human. The text has this:
(§1) Source data. […] Assays measured direct interactions between chemicals and molecular targets (receptors, enzymes), as well as downstream effects on reporter gene activity or cellular consequences. […] The perturbation scores are a method of aggregating assays into groups and providing a higher-level view of chemical activity across important signaling pathways.
(§2) Identifying pVDCs. Six assay targets emerged as most relevant to embryonic blood vessel formation based on biological plausibility and prevalence in the VasculoDB literature. These targets have been previously identified, based on murine knockout models or significant associations between biomarker data and adverse pregnancy effects, as critical to proper embryonic blood vessel formation or maternal–fetal placental circulation. In order of descending influence (with corresponding references highlighting their importance to vascular development), these were down-regulation of the receptor tyrosine kinase (RTK) VEGFR2 ([Drake et al. 2007]); inhibition of the enzymatic activity of TIE2, an angiogenic RTK ([Patan 1998]); down-regulation of the proangiogenic chemokine CCL2 ([Keeley et al. 2008]); perturbation of the plasminogen-activating system (PAS) controlling extracellular matrix breakdown via up- or down-regulation of plasminogen activator inhibitor type 1 (PAI-1/SERPINE1) ([Behzadian et al. 2003]); up-regulation of the proinflammatory antiangiogenic chemokine CXCL10 ([Romagnani et al. 2001]); and perturbation of the PAS via up- or down-regulation of urokinase-type plasminogen activator receptor (uPAR/PLAUR) ([D’Alessio and Blasi 2009]).
(§3) As predicted, thalidomide and 5HPP-33 were active across most of the pVDC signature assay targets. […] 5HPP-33 also had effects on uPAR in the endothelial cell system at 10 µM. […] Both compounds, however, fell above the mean VBS cutoff and would be classified as pVDCs based on in vitro activity for vascular targets identified by the ToxCast data and chemicals. […] Thus, our findings with reference compounds known to be antiangiogenic support the contention that VBS is an effective metric for vascular disruption.

A further assay relates to CCL2. In words: BioMAP protein readout: CCL2 down-regulation. The class given is cell-based, human.
Excerpt: as §1, §2, §3

Another assay addresses TIE2 (Homo sapiens, UniProt Q02763). Nature of the assay: TIE2 cell-free biochemical assay.
For another assay, the system named is VEGFR2. In words: BioMAP protein readout: VEGFR2 down-regulation. The class given is cell-based, human. Conditions: lowest effective concentration.
Excerpt: as §1
(§4) Identifying pVDCs. Six assay targets emerged as most relevant to embryonic blood vessel formation based on biological plausibility and prevalence in the VasculoDB literature. These targets have been previously identified, based on murine knockout models or significant associations between biomarker data and adverse pregnancy effects, as critical to proper embryonic blood vessel formation or maternal–fetal placental circulation. […]

The test system of the next assay is CXCL10. In words: BioMAP protein readout: CXCL10 up-regulation. The class given is cell-based, human.
Excerpt: as §1, §4

For assay [2], the system named is six prioritized vascular targets (VEGFR2, TIE2, CCL2, PAI-1, CXCL10, uPAR). In words: Vascular bioactivity score (VBS): weighted sum of activity across 23 ToxCast assays. On the set-up: species or system human.
The test system of another assay is PAI-1. Nature of the assay: BioMAP protein readout: PAI-1 up- and down-regulation. The assay is classed as cell-based, human.
Excerpt: as §1, §2, §3

Sequence of TIE2 (Q02763 23-1124, species assumed): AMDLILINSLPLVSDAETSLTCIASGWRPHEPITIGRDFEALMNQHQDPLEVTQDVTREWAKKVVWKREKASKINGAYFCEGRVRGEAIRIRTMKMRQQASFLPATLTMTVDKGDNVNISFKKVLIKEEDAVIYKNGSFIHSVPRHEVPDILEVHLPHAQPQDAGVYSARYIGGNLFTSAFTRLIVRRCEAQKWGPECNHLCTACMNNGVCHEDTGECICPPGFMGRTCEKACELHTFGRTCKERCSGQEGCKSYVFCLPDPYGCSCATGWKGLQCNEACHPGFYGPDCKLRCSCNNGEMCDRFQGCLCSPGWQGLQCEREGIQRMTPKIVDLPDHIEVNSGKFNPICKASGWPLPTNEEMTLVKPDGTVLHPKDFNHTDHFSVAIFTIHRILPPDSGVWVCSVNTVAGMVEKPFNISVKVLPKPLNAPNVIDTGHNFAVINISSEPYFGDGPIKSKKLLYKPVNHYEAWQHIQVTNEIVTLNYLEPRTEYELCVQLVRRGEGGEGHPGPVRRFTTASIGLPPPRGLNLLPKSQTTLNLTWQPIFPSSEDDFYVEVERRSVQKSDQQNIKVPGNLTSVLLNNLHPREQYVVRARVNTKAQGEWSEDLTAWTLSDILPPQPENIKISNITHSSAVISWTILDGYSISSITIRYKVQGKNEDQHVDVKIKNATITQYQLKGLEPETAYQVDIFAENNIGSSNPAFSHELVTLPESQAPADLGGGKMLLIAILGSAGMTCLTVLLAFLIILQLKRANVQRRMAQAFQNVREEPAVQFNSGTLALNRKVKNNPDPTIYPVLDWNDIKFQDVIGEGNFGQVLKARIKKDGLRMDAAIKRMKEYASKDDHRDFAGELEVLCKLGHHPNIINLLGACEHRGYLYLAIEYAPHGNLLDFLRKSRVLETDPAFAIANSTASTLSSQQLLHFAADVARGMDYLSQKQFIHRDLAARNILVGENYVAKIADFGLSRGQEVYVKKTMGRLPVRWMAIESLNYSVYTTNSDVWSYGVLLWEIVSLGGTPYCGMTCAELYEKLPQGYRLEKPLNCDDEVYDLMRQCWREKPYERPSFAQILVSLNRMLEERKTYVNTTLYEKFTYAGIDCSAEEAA

Consider `CC(C)c1cccc(C(C)C)c1N1C(=O)c2ccc(O)cc2C1=O` [5HPP-33, 5-hydroxy-2-(2,6-diisopropylphenyl)-1H-isoindole-1,3-dione], for which the “inhibition of tube formation” value in assay [1] was ~ 60%. In addition, the “uPAR up-regulation, effective concentration” value in the assay with uPAR (bronchial epithelial cells) was 1.25 µM. Besides, in the assay with uPAR (endothelial cell system), the “effects on uPAR, effective concentration” value is on record as 10 µM. For the same compound, the “uPAR up- and down-regulation LEC” value with uPAR (lowest effective concentration) was 1.25 µM. Further, the “CCL2 down-regulation LEC” value in the assay on CCL2 (coculture of peripheral blood mononuclear cells and endothelial cells) was determined as 0.625 µM. The “CCL2 down-regulation LEC” value in the assay with CCL2 (lowest effective concentration) is 0.625 µM. On TIE2, the AC50 is > 50 µM and the “AC50 in the TIE2 assay (in words)” value was “Neither compound affected the CXCL10 signal assay or produced an AC50 in the TIE2 assay”. The “VEGFR2 down-regulation LEC” value with VEGFR2 was determined as 20 µM. For the same compound, the “effect on CXCL10 signal assay” value in the assay with CXCL10 is “Neither compound affected”. For the same compound, in assay [2] (among all 311 compounds tested), the “predicted vascular disruption from VBS rank” value is “second highest VBS”. Besides, the VBS in assay [2] (summed activity across 23 assays, 6 assay targets, reference antiangiogenic compounds) came to 6.61. Further, the “PAI-1 down-regulation LEC” value with PAI-1 (both fibroblasts and bronchial epithelial cells) was found to be 20 µM. In the assay with PAI-1 (lowest effective concentration), the “PAI-1 up- and down-regulation LEC” value was found to be 20 µM.

A word on the AC50: it is the midpoint of the concentration-response curve, whichever way the signal moves. The low end stands for greater potency, the high end for weaker potency.
